Assay results from patent US20050004007A1, “Promotion of adoptosis in cancer cells by co-administration of cyclin dependent kinase inhibitiors and cellular differentiation agents” (priority 2000, published 2005).

Key:
[1] = system: U937 myelomonocytic human leukemia cells; experiment: percent cell death; format: cell-based; conditions: 1 μM SAHA, 100 nM FP, 24 hours after administration
p27KIP1 = experiment: Western analysis of p27KIP1 expression in U937 cells; format: cell-based, human; conditions: 10 nM PMA, FP 50-100 nM, 24 h
Procedure: Western analysis. Equal quantities of protein (15 μg/condition for MAPK, 40 μg/condition for cytochrome c, or 25 μg/condition) were separated by SDS-PAGE [underphosporylated pRB (7.5%), poly(ADP-ribose)polymerase or PARP (8.0%), p44/p42 MAPK (10%), p21, p27, procaspase 3 (12%), and cytochrome c (15%)] and electroblotted onto nitrocellulose. Western analysis of p44/p42 MAPK protein was performed according to the manufacturer's instructions (New England Biolabs); otherwise, studies were performed as previously described [Wang et al, 1998]. Briefly, U937 cells (5×10^6) were pelleted by centrifugation, resuspended in 50 μl PBS, lysed by the addition of 2× Laemmli buffer and boiled for 5 min. Proteins were quantified with Coomassie protein assay reagent. Blots were blocked in PBS-T/5% milk, washed twice with PBS-T, and incubated overnight at 4° C. with the appropriate primary antibody. The blots were washed with PBS-T and incubated with a horseradish-peroxidase conjugated secondary antibody diluted appropriately in PBS-T/5% mill. […]
Alternatively, whole cell-pellets were washed twice in PBS, resuspended in PBS, and lysed by the addition of I volume of loading buffer. Lysates were boiled for 10 min, centrifuged at 12,800 g for 5 min and quantified using Coomassie protein assay reagent (Pierce, Rockfold, Ill.). […]

ERK1/2 = experiment: Western analysis of phosphorylated p44/p42 MAPK in U937 cells; format: cell-based, human; conditions: 10 nM PMA, 100 nM FP, 30 min-6 h
Procedure: Western analysis. Equal quantities of protein (15 μg/condition for MAPK, 40 μg/condition for cytochrome c, or 25 μg/condition) were separated by SDS-PAGE [underphosporylated pRB (7.5%), poly(ADP-ribose)polymerase or PARP (8.0%), p44/p42 MAPK (10%), p21, p27, procaspase 3 (12%), and cytochrome c (15%)] and electroblotted onto nitrocellulose. Western analysis of p44/p42 MAPK protein was performed according to the manufacturer's instructions (New England Biolabs); otherwise, studies were performed as previously described [Wang et al, 1998]. Briefly, U937 cells (5×10^6) were pelleted by centrifugation, resuspended in 50 μl PBS, lysed by the addition of 2× Laemmli buffer and boiled for 5 min. Proteins were quantified with Coomassie protein assay reagent. Blots were blocked in PBS-T/5% milk, washed twice with PBS-T, and incubated overnight at 4° C. with the appropriate primary antibody. The blots were washed with PBS-T and incubated with a horseradish-peroxidase conjugated secondary antibody diluted appropriately in PBS-T/5% mill. Following incubation, blots were developed by enhanced chemiluminescence exposure to Kodak X-OMAT film (Eastman Kodak Co., Rochester, N.Y.) and reprobed with antibodies directed against actin to control for equal loading of protein.

[2] = system: HL-60 human promyelocytic leukemia cells; experiment: morphological assessment of apoptosis; format: cell-based; conditions: 3, 5, or 10 μM ATRA, 80 nM FP
From the text: Cell culture. The myelomonocytic leukemia cell line U937 was derived from a patient with histiocytic lymphoma and was obtained from American Type Culture Collection. The HL-60 cell line was derived from a patient with acute promyelocytic leukemia as previously described [Grant et al. 1992]. U937 and HL-60 cells were maintained in logarithmic growth phase by culturing in suspension in phenol red-free RPMI-1640 (Life Technologies, Inc., Grand Island, N.Y.) and 10% (v/v) fetal calf serum (Hyclone, Logan, Utah), in a humidified atmosphere (95% air/5% CO2) at 37° C. To obtain antisense-expressing cell lines, U937 cells were transfected by electroporation with a pREP4 vector (Invitrogen; Carlsbad, Calif.) or the pREP4 vector containing the p21^WAF1/CIP1 coding region in an antisense orientation as previously described [Wang et al. 1999]. […]
Morphological assessment of apoptosis. U937 cells were evaluated for apoptosis by morphological assessment of Wright and Giemsa-stained cytospin preparations. At designated times, cells were transferred to slides by cytocentrifugation, fixed, stained, and evaluated under light microscopy for treatment-induced apoptosis. […] Five or more randomly selected fields, encompassing a total≧500 cells/slide, were evaluated to determine the percentage of apoptotic cells for each treatment condition.

With CN1CC[C@H](c2c(O)cc(O)c3c(=O)cc(-c4ccccc4Cl)oc23)[C@H](O)C1 [FP, Flavopiridol] the cell death [1] was “modest level of cell death”, the p27KIP1 expression (p27KIP1) was “no effect” and the “phosphorylation (activation) of ERK1/2” value (ERK1/2) was “modestly increased ERK activation”. The “% apoptosis” value [2] was “minimal effect”.
